Measurements taken from patent US20100330128A1, “Method of improving immune function in mammals using lactobacillus strains with certain lipids” (priority 2005, published 2010).

Each substance was assayed on lymphocytes separated from spleen and thymus (assay: Lymphocyte proliferation assay (alamar blue)). Details: 72 hours after addition of stimulant, FIG. 2.
Format: cell-based, BALB/c mice
Protocol: Lymphocytes were prepared from the spleen and thymus of BALB/c mice and were incubated with supernatants derived from growing L. reuteri ATCC 55730 in the presence and absence of glycerol (50 mM). L. reuteri ATCC 55730 was selected as it is a known good producer of 3-HPA and thus follows the selection criteria of the invention. Control incubations were performed with glycerol alone, media alone and known lymphocyte proliferation stimulants.
Separation of spleen and thymus lymphocytes. BALB/c mice were sacrificed by cervical dislocation, and their thymus was separated, immersed in Hanks' balanced salt solution (HBSS) and torn piecemeal to obtain a single cell. The single cell was centrifuged through double layers in Histopaque-1083 (Sigma) to obtain lymphocytes. These cells were washed two times with IMDM, and living cells were counted according to tryphan blue exclusion technique and used in the experiment at an adjusted final concentration of 1×10^7/mL.
Preparation of bacterial lysates. L. reuteri and Listeria monocytogenes lysates were prepared as mentioned in the phagocytic assay.
Preparation of L. reuteri supernatants. L. reuteri supernatant was also prepared as mentioned in the phagocytic assay.
Lymphocyte proliferation assay. Lymphocyte proliferation assay was carried out using lymphocytes suspended in IMDM+10% horse serum at 4×10^6 per well. The lymphocytes were treated with varying concentrations of L. reuteri, L. monocytogenes cell lysate and L. reuteri supernatant along with a reference stimulant, of which concentrations and conditions were as follows:
In the results reported in Table 2, MRS and glycerol sol. controls were used by adjusting pH in broths which were not incubated with L. reuteri, and the following symbols used: ConA: concanavalin A, PWM: pokeweed mitogen, PHA: phytohemaaglutinin, LPS: liphopholysaccharide from Salmonella enterica serovar Typhimurium.
Stimulants including ConA were added into a well containing lymphocytes in accordance with each condition, 3 hours before alamar blue was added at 10% concentration. 72 hours after the addition of each stimulant, the level of lymphocyte proliferation was determined by the value of OD570 nm-OD600 nm.
The result of lymphocyte proliferation was represented as Stimulation Index (SI), which is (ODtreatment-ODmedia control)/ODcell control value. In the case of L. reuteri supernatant treatment group, however, values of J and K treatment groups, but not IMDM+10% horse serum, were used as OD media control value.
For phytohemaaglutinin [PHA], the “lymphocyte proliferation (Stimulation Index)” value was “marked stimulation of lymphocyte proliferation”.
In the case of concanavalin A [ConA], the “lymphocyte proliferation (Stimulation Index)” value is reported as “marked stimulation of lymphocyte proliferation”.
With “liphopholysaccharide from Salmonella enterica serovar Typhimurium [LPS]” the “lymphocyte proliferation (Stimulation Index)” value was “marked stimulation of lymphocyte proliferation”.
For pokeweed mitogen [PWM], the “lymphocyte proliferation (Stimulation Index)” value was “marked stimulation of lymphocyte proliferation”.
